{"source": "patent US9125930B2", "about": "“EGFR aptamer inhibitor for use in therapy and diagnosis” (CONSIGLIO NAZIONALE DELLE RICERCHE, priority 2010, dated 2015)", "key": {"A549 cells [1]": {"system": "A549 cells", "experiment": "Cell viability assay, A549 cells", "format": "cell-based, human", "protocol": "Cell viability was assessed with CellTiter 96® AQueous One Solution Cell Proliferation Assay (Promega, Madison, Wis.) according to according to the supplier's instructions. […] The optical density (OD) was measured using a Multilabel Counter (Bio-Rad) at a wavelength of 490 nm and cell viability was calculated by the following formula: Cell viability (%)=(OD treated cells/OD control cells)×100%. FACS Analysis"}, "caspase-8": {"system": "caspase-8", "experiment": "Caspase-8 activity assay in A549 cells", "format": "cell-based, human", "details": "A549, 200 nM, 6 hs", "protocol": "A549 cells were treated with 200 nM CL4 42-81 or the scrambled aptamer for 6 hs. To determine caspase activity cell lysates (50 μg) were incubated at 37° C. for 1 h with 50 μM of a specific fluorometric substrate (Ac-DEVD-AFC for caspase-3, Ac-IETD-AFC for caspase-8, both from Alexis Bichemicals, San Diego, Calif.). Cleavage of the fluorometric substrate were determined using a Fluorometer, with excitation at 400 nm and emission at 505 nm wavelengths."}, "A431 cells": {"system": "A431 cells", "experiment": "Cell viability assay, A431 cells", "format": "cell-based, human", "protocol": "Cell viability was assessed with CellTiter 96® AQueous One Solution Cell Proliferation Assay (Promega, Madison, Wis.) according to according to the supplier's instructions. Cells (4×10^3 cells/well) were plated in 96-well plates in triplicate. and were treated for 24 hs with heat denatured CL4 42-81 or the scrambled aptamer at 3 μM concentration. RNA concentrations were determined to ensure the continuous presence of a concentration of at least 200 nM, which takes into account the 6 hs-half life of the aptamer in 10% serum. The optical density (OD) was measured using a Multilabel Counter (Bio-Rad) at a wavelength of 490 nm and cell viability was calculated by the following formula: Cell viability (%)=(OD treated cells/OD control cells)×100%. FACS Analysis"}, "EGFR": {"molecular_target": "EGFR (Homo sapiens, UniProt P00533)", "experiment": "Immunoblot of pEGFR in A549 xenograft tumor lysates", "format": "in vivo, mouse", "set-up": "from tissue; host or cells: A549 xenograft tumours excised from athymic CD-1 nude mice", "details": "pooled tumor lysates", "protocol": "FIG. 8. (A) A549 cells (2,000 cells/well in 24-well plates) were treated for 24 h or 48 h with CL4 42-81 or CL4 scrambled (200 nM-final concentration) and proliferation was determined by [^3H]-thymidine incorporation. Vertical bars indicate the standard deviation values. […] Day 0 marks the first day of injection. Data are shown as means±s.e.m. (n=8 tumors). (C) Three tumors per group selected randomly were excised, lysed, and the pooled lysates were immunoblotted with anti-pEGFR, anti-EGFR, anti-caspase-3, anti-cleaved caspase-8 and anti-αtubulin antibodies, as indicated. Molecular weights of indicated proteins are reported. (D) Cell lysates as in (C) were analyzed by caspase-3 fluorimetric assays.\nAthymic CD-1 nude mice (nu/nu) were housed in a highly controlled microbiological environment, thus to guarantee specific pathogen free conditions. Mice were injected subcutaneously with 3×10^6 (in 100 μl) in vitro propagated A549. Sixteen non-necrotic tumors of about 0.5 cm in diameter were randomly divided into two groups of eight mice as follows: group 1, CL4 scrambled-treated; group 2, CL4 42-81-treated. Aptamers (200 pmols/injection) were injected intra-tumorally in 100-1 μl volumes three times a week for 16 days. Tumors were measured every 2 days."}, "A549 cells [2]": {"system": "A549 cells", "experiment": "Binding of [32P]-labeled aptamer on A549 cells", "set-up": "species or system human", "protocol": "Binding experiments were performed with 5′-[^32P]-labeled RNA. For labeling 2′-F-Py RNAs were 5′-end dephosphorylated using bacterial alcaline phosphatase (Invitrogen, Carlsbad, Calif.) before [^32P]-5′-end-labeled using T4 kinase (Invitrogen) and γ-[^32P]-ATP (6×10^3 Ci/mmol, GE Healthcare Bio-Sciences, Uppsala, Sweden) according to the supplier's instructions.\nFor binding experiments on cells, 3.5×10^4 cells were plated in 24-well plates in triplicate and were incubated with CL4 42-81 aptamer the scrambled sequence used as a negative control at 100 nM concentration in 200 μl of DMEM serum free for 20 min at RT in the presence of 100 μg/ml polyinosine as a nonspecific competitor (Sigma, St. Louis, Mo.). After five washings with 500 μl DMEM, bound sequences were recovered in 300 μl of SDS 1%, and the amount of radioactivity recovered was counted."}, "A431 tumors": {"system": "A431 tumors", "experiment": "Tumor growth in A431 mouse xenograft", "format": "in vivo", "details": "200 pmoles intratumoral", "protocol": "Athymic nude mice (nu/nu) were maintained in a sterile environment according to guidelines for Animal Care. Mice were inoculated with either 3×10^6 (in 100 μl) in vitro propagated A431 cells subcutaneously injected into each flank. Approximately 24 non-necrotic tumors for each tumor type, of about 1 cm in diameter, were randomly divided into three groups of eight mice per treatment group as follows: group 1, no treatment; group 2, treated with scrambled RNA as a negative control (200 pmols/injection); group 3, treated with CL4 42-81 (200 pmols/injection). Compounds were injected intra-tumorally in 100-1 μl volumes three times a week for two weeks. Day 0 marks the first day of injection. The aptamers may also be administered systemically, in particular when optimized by addition of polyethylene glycol (PEG).\nThe volume injections are small enough to preclude the compounds being forced inside the cells due to a nonspecific high-pressure injection. Tumors were measured every 3 days with calipers in three dimensions. The following formula was used to calculate tumor volume: VT=(W×L×H)×0.5236 (W, the shortest dimension; L, the longest dimension; H, the intermediate dimension). The growth curves are plotted as the means tumor volume±s.e.m. Statistical analysis of tumor size data was conducted using a one-way ANOVA. A P-value of 0.05 or less was considered to indicate a significant difference. […]"}}, "data": [{"substance": "CL4 42-81: 2′-fluoropyrimidine nuclease-resistant RNA aptamer of 39 nt: 5′ GCCUUAGUAACGUGCUUUGAUGUCGAUUCGACAGGAGGC 3′ (SEQ ID No. 1) (2'-fluoro at CU, RNA at AG, backbone not given here)", "values": [{"measurement": "sensitivity of A549 cell viability", "setting": "A549 cells [1]; 200 nM-final concentration, 24 h", "value": "highly sensitive"}, {"measurement": "cell viability", "setting": "A549 cells [1]; A549, 24 hs, 200 nM final concentration, relative to untreated cells set to 100%", "value": "about 60%"}, {"measurement": "effectiveness on A549 cell viability in combination with gefitinib", "setting": "A549 cells [1]; CL4 42-81 100 and 200 nM with 1 μM gefitinib, 24 h", "value": "not improved"}, {"measurement": "activation of caspase-8", "setting": "caspase-8", "value": "strongly induce activation"}, {"measurement": "sensitivity of A431 cell viability", "setting": "A431 cells; 200 nM-final concentration, not shown", "value": "same effect"}, {"measurement": "cell viability", "setting": "A431 cells; A431, 24 hs, 200 nM final concentration, relative to untreated cells set to 100%", "value": "about 60%"}, {"measurement": "extent of EGFR tyrosine phosphorylation in xenograft tumors", "setting": "EGFR", "value": "decreases"}, {"measurement": "binding on A549 cells", "setting": "A549 cells [2]; EGFR-positive, 100 nM", "value": "binds"}, {"measurement": "Kd", "setting": "A549 cells [2]; binding to A549 target cells", "value": 38, "unit": "nM"}, {"measurement": "tumor growth from day 9 to day 15", "setting": "A431 tumors; three times a week", "value": "stopped to grow and was reduced in volume"}, {"measurement": "tumor volume", "setting": "A431 tumors; three times a week for two weeks", "value": "pronounced reduction in tumor volume"}]}]}
